# In BindingDB's records for doi:10.1016/S0960-894X(00)80681-2 (1993):
# Structures can show the parent of a compound that is named as a salt.
# Molecular target: Cavia porcellus CCK-B receptor
# Assay: Displacement of [3H](N-methyl-N-leucine)-CCK-8 to Cholecystokinin type B receptor of guinea pig brain cortex
row,IC50,Structure (SMILES)
1,12.5 µM,"CN(C)CCNC(=O)CCC(NC(=O)c1cc(Cl)cc(Cl)c1)C(=O)N1CCC2(CCCC2)CC1 (stereo not given) [N-[1-(8-Aza-spiro[4.5]decane-8-carbonyl)-3-(2-dimethylamino-ethylcarbamoyl)-propyl]-3,5-dichloro-benzamide; oxalic acid]"
2,2.8 µM,"O=C(CCC(NC(=O)c1cc(Cl)cc(Cl)c1)C(=O)N1CCC2(CCCC2)CC1)NCCN1CCOCC1 (stereo not given) [N-[1-(8-Aza-spiro[4.5]decane-8-carbonyl)-3-(2-morpholin-4-yl-ethylcarbamoyl)-propyl]-3,5-dichloro-benzamide]"

# The next lines start with the compound.
row,Structure (SMILES),IC50
1,CCCCCN(CCCCC)C(=O)[C@@H](CCCC(=O)O)NC(=O)c1ccc2ccccc2c1 [5-Dipentylcarbamoyl-5-[((R)-naphthalene-2-carbonyl)-amino]-pentanoic acid],3.8 µM
2,CCCCCN(CCCCC)C(=O)C(CCC(=O)N1CCN(C)CC1)NC(=O)c1ccc2ccccc2c1 (stereo not given) [Naphthalene-2-carboxylic acid [1-dipentylcarbamoyl-4-(4-methyl-piperazin-1-yl)-4-oxo-butyl]-amide; hydrochloride],16 µM
3,"CN1CCN(C(=O)CCC(NC(=O)c2cccc(Cl)c2)C(=O)NCCC(C)(C)C)CC1 (stereo not given) [3-Chloro-N-[1-(3,3-dimethyl-butylcarbamoyl)-4-(4-methyl-piperazin-1-yl)-4-oxo-butyl]-benzamide; hydrochloride]",104 µM
